“Also recorded” adds a separate entry of the source. Read-outs that look alike come from different tables or passages of the source.
Experiments:
C57BL/6J mice [1] = test: Hot plate assay, oxycodone-induced thermal antinociception; format: in vivo
[2] = Brain biodistribution study after IP dosing; format: in vivo, C57BL/6J mice; settings: male, C57BL/6J, mouse, 2 mg/kg
Experimental: (§1) Adult male C57BL/6J mice were purchased from Jackson Laboratories (Bar Harbor, ME). The animals were housed in polyethylene cages and given food and water ad libitum. Animals were administered 29 by intravenous, oral gavage or intraperitoneal (IV, PO or IP injection). Two groups of mice (n = 3/group) were sampled three times each via the saphenous vein. Whole blood samples were collected into heparinized pipet tips, centrifuged at 4300×g for 2 min to isolate plasma and transferred onto dry ice. Plasma samples were stored at − 80 °C until processing. Separately, for brain biodistribution studies, five mice per time-point were administered 29 via the IP route and a single blood sample was collected from each animal via intracardiac puncture prior to perfusing with ice-cold saline for 5 min before removing the brain. All animal procedures were conducted in accordance with The Guide for the Care and Use of Laboratory Animals (National Academic Press, 1996) and approved by the IACUC (Institutional Animal Care and Use Committee) at the University of Kentucky and at the Rockefeller University.
Brains were excised and sectioned at the sagittal plane. Half of the brain from each animal was homogenized (1:1, w/v) with phosphate buffered saline. […] Proteins were precipitated by addition of 80 µL of 0.1% formic acid. Samples were vortex mixed (10 s) and stored at − 20 °C for 20 min prior to centrifugation at 13,000×g for 15 min at 4 °C. The resulting supernatants were collected into amber HPLC vials fitted with 200 µL glass inserts and immediately analyzed for analyte content by LC/MS–MS.
(§2) For the analysis of total amount of 29 in the plasma samples, calibration curve was generated with 29 drug spiked to mouse blank plasma. Calibrators (0.25–1000 ng/mL) were prepared by the addition of 5 µL of appropriate spiking solution into 100 µL blank plasma followed by vortex mixing. Quality control samples (0.75, 25, 500, 850 ng/mL) were prepared from an independent second stock in a similar fashion. For the analysis of 29 in brain tissue samples, calibration curve was generated with 29 drug spiked to blank mouse brain tissue homogenate using a calibration curve (0.5–372 ng/mL) and quality control samples (0.75, 13.3, 25, 266 ng/mL). The limit of quantitation for plasma was 0.4 ng/mL and for brain tissue 1 ng/mL.
(§3) Analyte and internal standard contained in 4 µL sample injections were eluted from a Waters XBridge C18 (3.5µ, 4.6 × 150 mm; oven temp. 40 °C) analytical column with a 0.1% formic acid in water (Mobile Phase-A): 0.1% formic acid in acetonitrile (Mobile Phase-B) gradient. […] The 90% Mobile Phase-B was maintained for 2.5 min before returning to the initial 35% over a 0.1 min linear ramp. […] The total run time was 7.5 min. Positive-mode ESI Turbo V® source and MS gas, temperature and voltage potential settings were based on optimized parameters determined prior to analysis using infusions of 1000 ng/mL drug standards in 50:50 mobile phase mixture mixed with LC effluent for a total 0.6 mL/min flow rate. Flow-dependent parameters were: CUR = 35/ISV = 5500/TEM = 550/GS1 = 65/GS2 = 65/Horizontal probe position = 7/Vertical probe position = 0.5). […] Calibrators, quality control samples and experimental sample sequences consisted of single randomized experimental sample injections flanked by sets of blanks, and calibrators. A calibration curve was constructed by weighted (1/x^2) polynomial regression analysis of analyte concentration to analyte peak area using GraphPad Prism software (Ver 8.4.3).
(§4) All data sets were analyzed using Phoenix WinNonlin (Certara). A 2-compartment mammillary model was simultaneously fitted to all plasma concentrations obtained from intravenous, oral, and intraperitoneal administration of 29. The oral and intraperitoneal bioavailability was also estimated. Parameters were estimated using population modeling with quasi-random parameter estimation method (QRPEM). […]

[3] = Pharmacokinetic study, plasma (IV, PO, IP); format: in vivo, C57BL/6J mice; settings: for half-life / Tmax / bioavailability / AUC: plasma; for AUC: NCA
Experimental: as §1
Experimental plasma samples were thawed at 37 °C for 3 min and vortex mixed. […] Samples were vortex mixed, then treated with 4× volume (60 µL) of 0.1% formic acid in methanol to precipitate proteins. The samples were vortex mixed (5 s) then centrifuged at 13,000×g for 15 min at 4 °C. The resulting supernatants were collected into amber HPLC vials fitted with 200 µL glass inserts and immediately analyzed for analyte content by LC/MS–MS.
as §2, §3, §4

C57BL/6J mice [4] = test: Locomotor activity assay, deficits caused by KOR agonist U50,488; format: in vivo
Experimental: These studies (in C57BL/6J mice from the Jackson Laboratory) focused on the effectiveness of 29 in preventing decreases in locomotor activity caused by the KOR agonist U50,488 (10 mg/kg, IP) over 90 min. This dose and duration of monitoring period was based on recently published studies. Mice were placed individually in rectangular transparent plastic cages (19.7 cm width × 41.3 cm length × 20.3 cm height) with bedding identical to that in the home cage. Each cage was in a photocell frame with an array of perpendicular photocell beams (SmartFrame; Kinder Scientific, Poway, CA). Beam breaks caused by the mouse were quantified through a computer interface. Mice were habituated to this apparatus for a 60-min session. Consecutive experiments in the same mice were separated by at least 72 h. Vehicle or 29 was injected 30 min prior to U50,488 (10 mg/kg). Immediately after the U50,488 injection, each mouse was placed in a locomotor activity cage for a 90-min period.
The locomotor activity data were analyzed as beam breaks over 15-min bins. Data were analyzed with 2-way repeated measures or mixed effects ANOVAs, followed by appropriate post-hoc tests (GraphPad Prism software).

[5] = male, C57BL/6J, mouse, IP, 2 mg/kg
[6] = male, C57BL/6J, mouse, IV, 2 mg/kg
[7] = male, C57BL/6J, mouse, PO, 5 mg/kg

COc1ccc2c3c1O[C@H]1C(=O)CC[C@@]4(O)[C@@H](C2)N(C)CC[C@]314 [Oxycodone, oxycodone, reference compound]
time of peak effects after injection (C57BL/6J mice [1]; oxycodone 5.6 mg/kg IP): 15 min
antinociceptive effect (C57BL/6J mice [1]; oxycodone 5.6 mg/kg IP, 30 min after vehicle pretreatment): near-maximal antinociceptive effect

C=C1CC[C@@]2(OCCC)[C@H]3Cc4ccc(O)c5c4[C@@]2(CCN3CC2CC2)[C@H]1O5 [Compound 29]
half-life ([2]; brain, ip, IP dosing, brain, mice, read-out: apparent terminal half-life in the brain): ~80 min
Tmax ([2]; brain, ip, IP dosing, brain, read-out: Tmax in brain (converted)): ~20 min
half-life ([2]; brain, ip, IP, brain, read-out: Apparent half-life, t½ (converted)): 80.4 min
Tmax ([2]; brain, ip, IP, brain, read-out: Tmax): 19.2 min
Kp ([2]; brain, ip, read-out: partition coefficient, Kp,brain): 1.6
half-life ([2]; plasma, ip, IP dosing, plasma, read-out: apparent terminal half-life in plasma): 55 min
AUC ([2]; IP, brain, NCA): 0.634 µM·h
duration of MOR antagonist action (lower bound) (C57BL/6J mice [1]; 0.1 mg/kg IP): at least 240 min
duration of action (upper bound) (C57BL/6J mice [1]; 0.1 mg/kg IP): less than 24 h
prevention of oxycodone-induced antinociception (C57BL/6J mice [1]; 29 0.1 mg/kg IP, 30 min before oxycodone 5.6 mg/kg IP): fully effective; also recorded: complete prevention
prevention of peak antinociceptive effects of oxycodone (time course) (C57BL/6J mice [1]; 29 0.1 mg/kg IP, pretreatment 15, 30, 120 and 240 min before oxycodone 5.6 mg/kg, measured 15 min after oxycodone): significantly prevent
prevention of oxycodone-induced antinociception (dose-dependence) (C57BL/6J mice [1]; 29 0.01–0.1 mg/kg IP, 30 min before oxycodone 5.6 mg/kg IP): dose-dependently; also recorded: dose-dependent prevention
onset of antagonist action (C57BL/6J mice [1]; after IP injection, 0.1 mg/kg): ≤ 15 min
CL2 ([3]; 2-compartment model): 174 mL/min/kg
V2 ([3]; 2-compartment model): 6.07 L/kg
V ([3]; 2-compartment model fitted to IV, PO and IP plasma concentrations): 5.36 L/kg
FIP (bioavailability following IP administration) ([3]; 2-compartment model, IP 2 mg/kg, 2 mg/kg): 99.5%
Ka,ip ([3]; 2-compartment model, intraperitoneal absorption): 7.53 h⁻¹
Ka,po ([3]; 2-compartment model, oral absorption): 7.91 h⁻¹
time of measurable plasma concentrations ([3]; IP dosing): at least 6 h
time plasma concentrations were above the lower quantitation limit ([3]; following IV and PO dosing): 2 h
half-life ([3]; male, C57BL/6J, mouse, intraperitoneal, 2 mg/kg, mice, read-out: plasma half-life (converted)): 54 min
clearance ([3]; male, C57BL/6J, mouse, intraperitoneal, 2-compartment model fitted to IV, PO and IP plasma concentrations): 202 mL/min/kg
Tmax ([3]; male, C57BL/6J, mouse, intraperitoneal, PO and IP administration): ≤ 10 min
half-life ([3]; male, C57BL/6J, mouse, intravenous, oral, intraperitoneal, mice, read-out: plasma half-life (converted)): 36 to 60 min
bioavailability ([3]; male, C57BL/6J, mouse, ip, 2 mg/kg, 2-compartment model, IP 2 mg/kg, read-out: FIP (bioavailability following IP administration)): ~100%
bioavailability ([3]; male, C57BL/6J, mouse, po, 5 mg/kg, 2-compartment model, PO 5 mg/kg, read-out: Fpo (oral bioavailability)): ~6.6%
Tmax [3, 5]: 7.2 min
AUC [3, 5]: 0.397 µM·h
half-life ([3]; male, C57BL/6J, mouse, IP, 2 mg/kg, read-out: Apparent half-life, t½ (converted)): 56.4 min
Tmax [3, 6]: 4.8 min
AUC [3, 6]: 0.207 µM·h
half-life ([3]; male, C57BL/6J, mouse, IV, 2 mg/kg, read-out: Apparent half-life, t½ (converted)): 34.8 min
Tmax [3, 7]: 6 min
AUC [3, 7]: 0.064 µM·h
half-life ([3]; male, C57BL/6J, mouse, PO, 5 mg/kg, read-out: Apparent half-life, t½ (converted)): 59.4 min
blockade of locomotor effects of U50,488 (C57BL/6J mice [4]; 29 0.1 mg/kg IP, 30 min before U50,488 10 mg/kg): ineffective; also recorded: did not cause any apparent blockade
blockade of locomotor depressant effects of U50,488 (C57BL/6J mice [4]; 29 1 mg/kg IP, 30 min before U50,488 10 mg/kg): did block the locomotor depressant effects; also recorded: able to prevent locomotor deficits
effect on locomotor activity alone (C57BL/6J mice [4]; 29 1 mg/kg alone, compared to a vehicle injection): did not cause significant effects on locomotor activity

— publication PMC8427951, “Design, synthesis, and preliminary evaluation of a potential synthetic opioid rescue agent” (Journal of Biomedical Science, 2021)
